Assay results from US7504517B2, “Kv1.5 potassium channel inhibitors” (Wyeth, priority 2006, dated 2009).
Counter-ions that a name gives are not always drawn.

What was measured:
Kv1.5 = target: T1, Kv1.5 (Homo sapiens, UniProt P22460); assay: Kv1.5 Patch Clamp EP; format: cell-based; details: whole cell patch clamp; for inhibition at 1 µM: single point, Kv1.5 stably over expressed in HEK or LTK- cells; for IC50: HEK or LTK- cells, at least four concentrations, n=3
T1 construct: expressed in transfected cells; host or cells: HEK or LTK- cells
T1 sequence (P22460 whole entry): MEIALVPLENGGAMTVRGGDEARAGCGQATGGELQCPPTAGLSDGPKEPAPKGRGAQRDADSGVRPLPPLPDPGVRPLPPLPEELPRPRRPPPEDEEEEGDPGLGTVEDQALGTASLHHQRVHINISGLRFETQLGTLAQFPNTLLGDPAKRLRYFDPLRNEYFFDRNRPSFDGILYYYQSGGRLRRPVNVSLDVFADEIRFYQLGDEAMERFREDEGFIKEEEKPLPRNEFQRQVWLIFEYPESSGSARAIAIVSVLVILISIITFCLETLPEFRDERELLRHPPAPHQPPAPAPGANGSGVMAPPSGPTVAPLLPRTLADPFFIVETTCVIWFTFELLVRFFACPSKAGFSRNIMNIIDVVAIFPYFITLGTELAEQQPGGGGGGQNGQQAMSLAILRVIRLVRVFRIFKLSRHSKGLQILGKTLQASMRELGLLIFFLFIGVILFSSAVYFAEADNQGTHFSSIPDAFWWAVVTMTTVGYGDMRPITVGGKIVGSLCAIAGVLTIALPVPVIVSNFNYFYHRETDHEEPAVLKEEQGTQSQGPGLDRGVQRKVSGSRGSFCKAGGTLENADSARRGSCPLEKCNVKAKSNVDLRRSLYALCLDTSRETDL
Experimental: The external solution is standard Tyrodes solution. […] Inhibition was measured at the end of the 1 second pulses and expressed relative to controls. Initial Kv1.5 inhibition is estimated by single point determinations done at 1 μM.

L-type calcium channels = assay: FLIPR L-Type Calcium Channel Assay; format: cell-based, murine; details: HL-1 cells expressing endogenous L-type calcium channels; calcium influx after 20 mM KCl; read-out: L-type Ca^2+ IC50
How it was run: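 After a 15 min compound pre-incubation at 37 °C with 2.5 mM probenecid, L-type channels were opened by depolarising with 20 mM KCl (final). Fluorescence (488 nm excitation, 510–570 nm emission) was read for 5 min.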

HERG = HERG (Homo sapiens, UniProt Q12809); assay: HERG Patch Clamp EP; details: for inhibition at 10 µM: human, HEK cells stably overexpressing HERG
Chain of HERG (Q12809 whole entry): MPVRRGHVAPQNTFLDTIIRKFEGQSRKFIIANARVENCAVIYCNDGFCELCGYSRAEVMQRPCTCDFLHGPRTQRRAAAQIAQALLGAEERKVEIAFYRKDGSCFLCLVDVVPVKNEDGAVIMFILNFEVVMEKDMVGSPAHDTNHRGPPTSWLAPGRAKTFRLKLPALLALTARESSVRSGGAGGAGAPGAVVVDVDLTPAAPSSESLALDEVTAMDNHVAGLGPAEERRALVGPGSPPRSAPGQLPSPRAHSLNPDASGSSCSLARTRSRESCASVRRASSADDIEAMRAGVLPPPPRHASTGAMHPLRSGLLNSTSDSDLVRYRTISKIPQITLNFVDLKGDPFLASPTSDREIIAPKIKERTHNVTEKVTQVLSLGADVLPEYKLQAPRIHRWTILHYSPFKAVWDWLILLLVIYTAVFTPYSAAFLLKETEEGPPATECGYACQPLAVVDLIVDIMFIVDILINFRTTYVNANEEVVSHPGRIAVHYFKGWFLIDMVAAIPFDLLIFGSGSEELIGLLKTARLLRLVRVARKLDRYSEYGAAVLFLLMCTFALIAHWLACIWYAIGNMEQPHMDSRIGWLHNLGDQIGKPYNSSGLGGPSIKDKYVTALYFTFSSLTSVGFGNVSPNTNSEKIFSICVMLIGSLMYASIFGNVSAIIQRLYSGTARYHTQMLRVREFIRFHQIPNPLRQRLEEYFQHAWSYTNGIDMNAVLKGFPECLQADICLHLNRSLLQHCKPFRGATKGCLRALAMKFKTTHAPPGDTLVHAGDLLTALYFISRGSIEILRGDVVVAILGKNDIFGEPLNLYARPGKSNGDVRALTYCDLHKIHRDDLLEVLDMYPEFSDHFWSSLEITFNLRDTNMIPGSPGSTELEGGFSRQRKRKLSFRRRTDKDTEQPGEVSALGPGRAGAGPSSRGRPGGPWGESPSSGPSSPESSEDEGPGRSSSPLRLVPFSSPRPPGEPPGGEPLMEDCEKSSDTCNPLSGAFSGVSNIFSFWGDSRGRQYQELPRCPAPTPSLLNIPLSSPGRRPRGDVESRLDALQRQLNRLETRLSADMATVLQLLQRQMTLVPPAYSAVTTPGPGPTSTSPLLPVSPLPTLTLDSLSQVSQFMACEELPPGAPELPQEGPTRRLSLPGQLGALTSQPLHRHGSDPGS

COc1ccc(CCN2C(=O)N(NS(=O)(=O)Cc3cccnc3)CC2c2ccc(C3CC3)cc2)cc1 (centres unmarked) [Compound 64, 1-[(Pyridin-3-yl)methanesulfonyl]amino-3-[(4-methoxyphenyl)ethyl]-4-(4-cyclopropylphenyl)-imidazolidin-2-one]
inhibition at 1 µM (Kv1.5): 96% | IC50 (L-type calcium channels): 14 µM | inhibition at 10 µM (HERG): 55%

COc1ccc(CCN2C(=O)N(NCc3ccncc3)CC2c2ccc(C)c(C)c2)cc1 (centres unmarked) [Compound 84, 4-(3,4-Dimethylphenyl)-3-[2-(4-methoxyphenyl)ethyl]-1-[(pyridin-4-ylmethyl)amino]-imidazolidin-2-one]
inhibition at 1 µM (Kv1.5): 67% | IC50 (Kv1.5): 0.57 µM | IC50 (L-type calcium channels): 10 µM | inhibition at 10 µM (HERG): 73%

COc1ccc(CCN2C(=O)N(NS(C)(=O)=O)C[C@H]2c2ccc(OC(F)F)cc2)cc1 [Compound 170, N-{(4R)-4-[4-(difluoromethoxy)phenyl]-3-[2-(4-methoxyphenyl)ethyl]-2-oxoimidazolidin-1-yl}methanesulfonamide]
inhibition at 1 µM (Kv1.5): 49% | IC50 (L-type calcium channels): 30 µM | inhibition at 10 µM (HERG): 62%

COc1ccc(CCN2C(=O)N(N)CC2c2ccc(C3CC3)cc2)cc1 (centres unmarked) [Compound 6, 1-Amino-3-[2-(4-methoxyphenyl)ethyl]-4-(4-cyclopropylphenyl)-2-imidazolidinone 4-methylbenzenesulfonic acid salt]
inhibition at 1 µM (Kv1.5): 53% | IC50 (L-type calcium channels): 12 µM | inhibition at 10 µM (HERG): 29%

COc1ccc(CCN2C(=O)N(N(C)S(=O)(=O)Cc3ccccc3)CC2c2ccc(C)c(C)c2)cc1 (centres unmarked) [Compound 67, 1-[(N-methyl-N-benzylsulfonyl)amino]-3-[2-(4-methoxy-phenyl)ethyl]-4-(3,4-dimethylphenyl)-2-imidazolidinone]
inhibition at 1 µM (Kv1.5): 90% | IC50 (L-type calcium channels): 8 µM | inhibition at 10 µM (HERG): 22%

COc1ccc(CCN2C(=O)N(NS(=O)(=O)CC(=O)NCC3CC3)CC2c2ccc(OC)cc2)cc1 (centres unmarked) [Compound 57, 1-[[2-[(Cyclopropylmethyl)amino]-2-oxoethyl]sulfonylamino]-3-[2-(4-methoxy-phenyl)ethyl]-4-(4-methoxyphenyl)-2-imidazolidinone]
inhibition at 1 µM (Kv1.5): 66% | IC50 (Kv1.5): 0.631 µM | IC50 (L-type calcium channels): 30 µM | IC50 (HERG): 12.4 µM | inhibition at 10 µM (HERG): 12%

COc1ccc(CCN2C(=O)N(NS(=O)(=O)CS(C)(=O)=O)CC2c2ccc(C3CC3)cc2)cc1 (centres unmarked) [Compound 61, 1-[(Methylsulfonylmethyl)sulfonyl]amino-3-[2-(4-methoxyphenyl)ethyl]-4-(4-Cyclopropylphenyl)-2-imidazolidinone]
inhibition at 1 µM (Kv1.5): 85% | IC50 (L-type calcium channels): 25 µM | inhibition at 10 µM (HERG): 28%

COc1ccc(CCN2C(=O)N(NC(=O)C3CC3)CC2c2ccc(C(C)(C)C)cc2)cc1 (centres unmarked) [Compound 73, 1-Cyclopropanecarbonylamino-4-[4-(tert-butyl)phenyl]-3-[2-(4-methoxy-phenyl)ethyl]-2-imidazolidinone]
inhibition at 1 µM (Kv1.5): 62% | IC50 (Kv1.5): 0.658 µM | IC50 (L-type calcium channels): 7 µM | inhibition at 10 µM (HERG): 56%

COc1ccc(CCN2C(=O)N(NC(=O)c3ccno3)CC2c2ccc(C(C)(C)C)cc2)cc1 (centres unmarked) [Compound 79, 1-(Isoxazol-5-ylcarbonylamino)-3-[2-(4-methoxyphenyl)-ethyl]-4-[4-(tert-butyl)phenyl]-2-imidazolidinone]
inhibition at 1 µM (Kv1.5): 68% | IC50 (L-type calcium channels): 11 µM | inhibition at 10 µM (HERG): 70%

COc1ccc(CCN2C(=O)N(N(CCn3ccnc3)C(C)=O)CC2c2ccc(C(C)(C)C)cc2)cc1 (centres unmarked) [Compound 100, 1-N-[2-(Imidazol-1-yl)ethyl]-N-[acetyl]amino-3-[2-(4-methoxyphenyl)ethyl]-4-[(4-tert-butyl)phenyl]-2-imidazolidinone]
inhibition at 1 µM (Kv1.5): 46% | IC50 (L-type calcium channels): 16 µM | inhibition at 10 µM (HERG): 92%

COCCN(N1CC(c2ccc(C3CC3)cc2)N(CCc2ccc(OC)cc2)C1=O)S(C)(=O)=O (centres unmarked) [Compound 68, 1-[(N-Methoxyethyl-N-methylsulfonyl)amino]-3-[2-(4-methoxyphenyl)ethyl]-4-(4-cyclopropylphenyl)-2-imidazolidinone]
inhibition at 1 µM (Kv1.5): 60% | IC50 (L-type calcium channels): 16 µM | inhibition at 10 µM (HERG): 48%

COc1ccc(CCCN2C(=O)N(NS(=O)(=O)CS(C)(=O)=O)CC2c2ccc(C3CC3)cc2)cc1 (centres unmarked) [Compound 127, N-{4-(4-cyclopropylphenyl)-3-[3-(4-methoxyphenyl)propyl]-2-oxoimidazolidin-1-yl}-1-(methylsulfonyl)methanesulfonamide]
inhibition at 1 µM (Kv1.5): 91% | IC50 (L-type calcium channels): 19 µM | inhibition at 10 µM (HERG): 54%

CS(=O)(=O)NN1CC(c2ccc(C3CC3)cc2)N(CCCc2ccccc2)C1=O (centres unmarked) [Compound 45, 1-(Methylsulfonylamino)-3-(3-phenylpropyl)-4-(4-cyclopropylphenyl)-2-imidazolidinone]
inhibition at 1 µM (Kv1.5): 83% | IC50 (L-type calcium channels): 16 µM | inhibition at 10 µM (HERG): 55%

COc1ccc(CCN2C(=O)N(NS(=O)(=O)Cc3ccccc3)CC2c2ccc(C)c(C)c2)cc1 (centres unmarked) [Compound 43, 1-[(Phenylmethyl)sulfonylamino]-3-[2-(4-methoxyphenyl)ethyl]-4-(3,4-dimethyl-phenyl)-2-imidazolidinone]
inhibition at 1 µM (Kv1.5): 93% | IC50 (L-type calcium channels): 4.3 µM | inhibition at 10 µM (HERG): 2%

COc1ccc(CCN2C(=O)N(N(CCn3ccnc3)C(=O)C(C)C)CC2c2ccc(C(C)(C)C)cc2)cc1 (centres unmarked) [Compound 99, 1-N-[2-(Imidazol-1-yl)ethyl]-N-[iso-butyroyl]amino-3-[2-(4-methoxyphenyl)-ethyl]-4-[(4-tert-butyl)phenyl]-2-imidazolidinone]
inhibition at 1 µM (Kv1.5): 73% | IC50 (L-type calcium channels): 4.9 µM | inhibition at 10 µM (HERG): 90%

COc1ccc(CCN2C(=O)N(NS(=O)(=O)Cc3cccnc3)CC2c2ccc(OC(F)F)cc2)cc1 (centres unmarked) [Compound 42, 1-[(N-3-Pyridinylmethylsulfonyl)amino]-3-[2-(4-methoxyphenyl)ethyl]-4-(4-difluoromethoxyphenyl)-2-imidazolidinone]
inhibition at 1 µM (Kv1.5): 91% | IC50 (Kv1.5): 0.418 µM | IC50 (L-type calcium channels): 20 µM | inhibition at 10 µM (HERG): 90%

COc1ccc(CCN2C(=O)N(NS(=O)(=O)CC(=O)N(C)C)CC2c2ccc(C3CC3)cc2)cc1 (centres unmarked) [Compound 54, 1-[[2-(Dimethylamino)-2-oxoethyl]sulfonylamino]-3-[2-(4-methoxyphenyl)-ethyl]-4-(4-cyclopropylphenyl)-2-imidazolidinone]
inhibition at 1 µM (Kv1.5): 80% | IC50 (L-type calcium channels): 30 µM | inhibition at 10 µM (HERG): 46%

COc1ccc(CCN2C(=O)N(NCc3ccc(C#N)cc3)CC2c2ccc(C)c(C)c2)cc1 (centres unmarked) [Compound 83, 1-[(4-Cyanophenylmethyl)amino]-3-[2-(4-methoxyphenyl)ethyl]-4-(3,4-dimethylphenyl)-2-imidazolidinone]
inhibition at 1 µM (Kv1.5): 96% | IC50 (L-type calcium channels): 2.8 µM | inhibition at 10 µM (HERG): 97%

COc1ccc(CCN2C(=O)N(NS(=O)(=O)CCS(C)(=O)=O)CC2c2ccc(C3CC3)cc2)cc1 (centres unmarked) [Compound 114, N-{4-(4-cyclopropylphenyl)-3-[2-(4-methoxyphenyl)ethyl]-2-oxoimidazolidin-1-yl}-2-(methylsulfonyl)ethanesulfonamide]
inhibition at 1 µM (Kv1.5): 75% | IC50 (L-type calcium channels): 15 µM | inhibition at 10 µM (HERG): 55%

COc1ccc(C2CN(NS(=O)(=O)Cc3cccnc3)C(=O)N2CCCc2ccccc2)cc1 (centres unmarked) [Compound 101, 1-[(Pyridin-3-yl)methylsulfonyl]amino-3-(3-phenylpropyl)-4-(4-methoxyphenyl)-2-imidazolidinone]
inhibition at 1 µM (Kv1.5): 81% | IC50 (L-type calcium channels): 19 µM | inhibition at 10 µM (HERG): 24%
